According to article PMC11247486, “Improving the In Vivo Stability of [^52Mn]Mn(II) Complexes with 18-Membered Macrocyclic Chelators for PET Imaging” (Journal of Medicinal Chemistry, 2024):

Experiments:
[1] = Dynamic PET/CT imaging, SUVmean analysis; assay type: in vivo; settings: healthy mice, 1.5 h postinjection
Experimental: (§1) [^52Mn]Mn-CHXPYAN and [^52Mn]Mn-PYAN radiocomplexes were evaluated in vivo through 90 min dynamic PET/CT imaging of heathy mice followed by an ex vivo biodistribution analysis. Similarly, [^52Mn]MnCl2 was also studied as a control.
Regions of interest (ROIs) were manually drawn using CT images to determine the standard uptake value (SUVmean) using VivoQuant imaging software.
(§2) [^52Mn]Mn-CHXPYAN and [^52Mn]Mn-PYAN were synthesized with molar specific activities of 80 and 60 MBq/μmol, respectively. 1.04 ± 0.07 MBq (28 ± 2 μCi) of the radiocomplexes in 100 μL injection doses was prepared. The mice (n = 4 per group) were anesthetized with 2.5% isoflurane in oxygen and were injected via the retroorbital sinus. For comparison purposes, 1.04 ± 0.07 MBq (28 ± 2 μCi) of [^52Mn]MnCl2, pH 7 was also injected. After injection, mice were imaged on a Sofie GNEXT PET/CT scanner for a 90 min dynamic scan (9 frames of 10 min each) followed by a 3 min CT at 80 kVp for anatomical reference. PET images were reconstructed via 3D-OSEM (Ordered Subset Expectation Maximization) algorithm (24 subsets and 3 iterations), with random, attenuation, and decay correction, and CT was reconstructed with the modified Feldkamp algorithm and analyzed using VivoQuant 4.0 (Invicro Imaging Service and Software, Boston MA) software. After imaging, mice were euthanized, and organs were collected, weighed, and counted for associated radioactivity on an automated gamma counter. Radioactivity uptake was calculated as the percent injected dose per gram of tissue (% ID/g). Following the reconstruction of the images, ROIs (heart, liver, kidneys, muscle, and bone) were hand-drawn to determine the SUVs using the VivoQuant imaging software.

[2] = DTPA challenge of the radiocomplexes; assay type: physicochemical; settings: DTPA (5 equiv), 37 °C
Experimental: (§3) Assessment of the stability and kinetic inertness of the radiocomplexes before in vivo evaluation was conducted to assess the possibilities of transchelation. In vitro stability assays including incubating the radiocomplexes with an excess (100 μM) of biologically relevant metal ions (Mg^2+, Zn^2+, Fe^2+, and Cu^2+), DTPA, and mouse and human serum were conducted.
(§4) For metal challenge studies, a 10 molar excess of 100 μM of metal ions in chloride solutions including CuCl2, ZnCl2, FeCl2, and MgCl2 relative to ligand concentration was incubated with the radiocomplexes at 37 °C. A 5 molar excess of DTPA was also added to compete with ^52Mn in the radiocomplexes. Decomplexation was monitored by radio-iTLC over a period of 5 days.

[3] = Serum stability of the 52Mn radiocomplexes, human serum; assay type: in vitro ADME; settings: for intact complex / % activity of pellet / % activity of supernatant: 37 °C; for intact complex: 5 days
Experimental: (§5) The ^52Mn radiocomplexes were incubated with human or mouse serum at 37 °C. 50 μL of the radiocomplexes in PBS was combined with 500 μL of serum in triplicate and incubated at 37 °C for over 5 days. At indicated time points, 50 μL of the reaction mixture was removed and proteins were precipitated by addition of 50 μL of methanol. The precipitated proteins were centrifuged before iTLC measurements were performed over a period of 5 days on the supernatant. All the radio-TLC chromatograms for evaluation of stabilities are available in the Supporting Information section as Figures S9–S12.

[4] = Ex vivo biodistribution after PET/CT; assay type: in vivo, mice
Experimental: as §1, §2

[5] = Serum stability of the 52Mn radiocomplexes, mouse serum; assay type: in vitro ADME; settings: for intact complex / % activity of pellet / % activity of supernatant: 37 °C; for intact complex: 5 days
Experimental: as §5

[6] = Metal challenge of the radiocomplexes; assay type: physicochemical
Experimental: as §3, §4

[7] = healthy mice, 1.5 h postinjection, mean ± SD, n = 4

[52Mn+2].c1cc2nc(c1)CN[C@@H]1CCCC[C@H]1NCc1cccc(n1)CN[C@@H]1CCCC[C@H]1NC2 [[^52Mn]Mn-CHXPYAN]
SUVmean, kidneys [1]: 0.20 ± 0.03 | SUVmean, liver [1]: 0.10 ± 0.02 | intact complex ([2]; day 5): 5.73 ± 0.25% | intact complex [3]: 98.04 ± 0.18% | % activity of pellet ([3]; day 1, average): 13.09% | % activity of supernatant ([3]; day 1, average): 86.91% | % activity of pellet ([3]; day 2, average): 12.54% | % activity of supernatant ([3]; day 2, average): 87.45% | % activity of pellet ([3]; day 3, average): 14.46% | % activity of supernatant ([3]; day 3, average): 85.54% | % activity of pellet ([3]; day 4, average): 10.33% | % activity of supernatant ([3]; day 4, average): 89.66% | % activity of pellet ([3]; day 5, average): 9.31% | % activity of supernatant ([3]; day 5, average): 90.7% | radioactivity associated with the protein pellet ([3]; all time points): < 15% | Biodistribution, Blood [4, 7]: 0.14 ± 0.01 % ID/g | Biodistribution, Brain [4, 7]: 0.03 ± 0.01 % ID/g | Biodistribution, Fat [4, 7]: 0.11 ± 0.13 % ID/g | Biodistribution, Femur [4, 7]: 0.09 ± 0.04 % ID/g | Biodistribution, Heart [4, 7]: 0.21 ± 0.01 % ID/g | Biodistribution, Kidney [4, 7]: 11.27 ± 1.11 % ID/g | Biodistribution, L. Intestine [4, 7]: 3.45 ± 1.44 % ID/g | Biodistribution, Liver [4, 7]: 1.72 ± 0.93 % ID/g | Biodistribution, Lungs [4, 7]: 0.26 ± 0.12 % ID/g | Biodistribution, Muscle [4, 7]: 0.02 ± 0.01 % ID/g | Biodistribution, Pancreas [4, 7]: 0.20 ± 0.09 % ID/g | Biodistribution, S. Intestine [4, 7]: 2.32 ± 0.83 % ID/g | Biodistribution, Skin [4, 7]: 0.08 ± 0.04 % ID/g | Biodistribution, Spleen [4, 7]: 0.22 ± 0.18 % ID/g | Biodistribution, Stomach [4, 7]: 0.08 ± 0.04 % ID/g | intact complex [5]: 96.31 ± 1.34% | % activity of pellet ([5]; day 1, average): 10.33% | % activity of supernatant ([5]; day 1, average): 89.66% | % activity of pellet ([5]; day 2, average): 10.82% | % activity of supernatant ([5]; day 2, average): 89.18% | % activity of pellet ([5]; day 3, average): 12.07% | % activity of supernatant ([5]; day 3, average): 87.93% | % activity of pellet ([5]; day 4, average): 14.33% | % activity of supernatant ([5]; day 4, average): 85.66% | % activity of pellet ([5]; day 5, average): 12.14% | % activity of supernatant ([5]; day 5, average): 87.67% | radioactivity associated with the protein pellet ([5]; all time points): < 15% | intact complex ([6]; 10 molar excess of Cu^2+, day 5): 14.56 ± 1.09% | intact complex ([6]; 10 molar excess of Zn^2+, day 5): 8.14 ± 1.76%

[52Mn+2].c1cc2nc(c1)CNCCNCc1cccc(n1)CNCCNC2 [[^52Mn]Mn-PYAN]
SUVmean, kidneys [1]: 1.70 ± 0.26 | SUVmean, liver [1]: 0.77 ± 0.14 | intact complex ([2]; day 1): 2.32 ± 0.66% | intact complex [3]: 92.78 ± 1.22% | Biodistribution, Blood [4, 7]: 0.70 ± 0.20 % ID/g | Biodistribution, Brain [4, 7]: 0.45 ± 0.09 % ID/g | Biodistribution, Fat [4, 7]: 1.03 ± 0.50 % ID/g | Biodistribution, Femur [4, 7]: 0.80 ± 0.30 % ID/g | Biodistribution, Heart [4, 7]: 1.85 ± 0.71 % ID/g | Biodistribution, Kidney [4, 7]: 63.34 % ID/g | Biodistribution, Liver [4, 7]: 30.39 ± 11.46 % ID/g | Biodistribution, Lungs [4, 7]: 1.28 ± 0.51 % ID/g | Biodistribution, Muscle [4, 7]: 0.18 ± 0.05 % ID/g | Biodistribution, Pancreas [4, 7]: 2.41 ± 1.60 % ID/g | Biodistribution, Skin [4, 7]: 0.32 ± 0.18 % ID/g | Biodistribution, Spleen [4, 7]: 1.33 ± 0.93 % ID/g | Biodistribution, Stomach [4, 7]: 1.29 ± 0.53 % ID/g | Biodistribution, L. Intestine ([4]; mouse, in vivo, 1.5 h): 2.69 ± 0.82 % ID/g | Biodistribution, S. Intestine ([4]; mouse, in vivo, 1.5 h): 13.00 ± 2.35 % ID/g | intact complex [5]: 90.67 ± 1.12% | intact complex ([6]; 10 molar excess of Cu^2+, day 1): < 4% | intact complex ([6]; 10 molar excess of Zn^2+, day 1): < 4%
